Data on two compounds can be found in patent US12351821B2, “Method to prepare sperm” (University of Massachusetts, priority 2016, dated 2025).

The test system of experiment [1] is mouse sperm (fertilizing capacity, metaphase II-arrested eggs). The experiment can be described thus: In vitro fertilization assay with ionophore pre-treated sperm. It is filed as cell-based. As to conditions: for fertilizing capacity: A23187 treatment. Here is the method:
(§1) Sperm from CD-1, C57BL6 (K.O control), CatSper KO 19, SLO3 KO (56), Soluble Adenylyl Cyclase KO (20), and PMC4 KO (35) cauda epididymides were allowed to swim out in 1 mL of standard TYH for 10 minutes. Each swim out tube was split in two halves (500 μl each) and one half was incubated with 20 uM A23187 for 10 minutes. Then, the A23187 was washed by centrifugation as described above (2000 and 1500 RPMS×5 min), the remaining sperm were re-suspended in free A23187 TYH standard medium and capacitated for an addition 1 hour and 20 minutes before adding the sperm to the fertilization drop or for CASA analysis.
Metaphase II-arrested eggs were collected from 6-8 week-old super ovulated CD-1 female mice (Charles River Laboratories). Females were each injected with 5-10 IU equine chorionic gonadotropin and 5-10 IU human chorionic gonadotropin 48 h apart. The cumulus-oocyte complexes (COC's) were placed into a well with 500 μl of media (TYH standard medium) previously equilibrated in an incubator with 5% CO2 at 37° C. Fertilization wells containing 20-30 eggs were inseminated with sperm (final concentration of 2.5×10^6 cells/ml) that had been incubated for 1 h and 20 min (in a medium supporting capacitation with or without calcium ionophore treatment A23187). After 4 h of insemination, eggs were washed and put in a fresh media. The eggs were evaluated 24 h post-insemination. To assess fertilization the three following criteria were considered: 1) the formation of the male and female pronuclei, 2) the emission of the second polar body, and 3) two cells stages.

In experiment [2] the test system is PKA. The experiment can be described thus: Western blot with anti-phosphoPKA substrate antibodies in sperm. It is filed as cell-based, mouse. Here is the method:
Cauda epididymal mouse sperm were placed in 1 ml Hepes-TYH media as stated in figure legend for each experiment. After 10 min incubation at 37° C., epididymides were removed, and the suspension adjusted with non-cap medium to a final concentration of 1-2×10^7 cells/ml. After dilution 1:4 (total 400 μl), sperm were incubated at 37° C. for 1 hour in conditions that support or not capacitation. For capacitation, media was supplemented with 15 mM NaHCO3 and 4 mg/ml BSA. For A23187 treatment, 500 uL of the sperm suspension were taken from the initial swim out and supplemented with 20 μM A23187 for 10 minutes. Then, A23187 was washed off with 2 rounds of centrifugations 1-) 2000 RPMS and the 2-) 1500 RPMS for 5 min each. Sperm were re-suspended in free A23187 media. To evaluate the behavior of A23187 when PKA is inactivated, H89 was used at a concentration of 50 uM for all incubation periods including those used for washing A23187. Sperm proteins were then extracted for western blotting.
Sperm were centrifuged, and washed in 1 ml of phosphate buffer solution (PBS), re-suspended in Laemmli sample buffer (63), and boiled for 4 min. Before Loading, 5% β-mercaptoethanol was added to the protein extracts and boiled for 3 min. Protein extracts equivalent to 1×10^6 sperm were loaded per line and subjected to SDS-PAGE an electro-transfer to PVDF membranes (Bio-Rad) at 250 mA for 60 min on ice. […]

Experiment [3] concerns mouse sperm. The experiment can be described thus: Sperm motility and hyperactivation by CASA after transient A23187 pre-treatment. Format: cell-based. The procedure: as §1
Sperm suspensions (25 μl) were loaded into one pre-warmed chamber slide (depth, 100 μm) (Leja slide, Spectrum Technologies) and placed on a microscope stage at 37° C. Sperm movements were examined using the CEROS computer-assisted semen analysis (CASA) system (Hamilton Thorne Research, Beverly, MA). The default settings include the following: frames acquired: 90; frame rate: 60 Hz; minimum cell size: 4 pixels; static head size: 0.13-2.43; static head intensity: 0.10-1.52; static head elongation: 5-100. Sperm with hyper activated motility, defined as motility with high amplitude thrashing patterns and short distance of travel, were sorted using the criteria established by (64). The data was analyzed using the CASA nova software (64). At least 20 microscopy fields corresponding to a minimum of 200 sperm were analyzed in each experiment.

Experiment [4] has as its system 2 cell embryos from eggs fertilized by treated sperm. The experiment can be described thus: Embryo culture of 2 cell embryos in KSOM to blastocyst stage. The conditions noted are these: for percentage of blastocyst in relation to the number of two-cell embryos: CatSper KO sperm, 3.5 days in KSOM. It is filed as cell-based, mouse. The procedure:
(§2) Fertilized 2 cell embryos were cultured in KSOM media to blastocyst stage between 3.5 days wt and K. O between 3.8 to 4.1 days. Then they were transferred to 2.5 days post coitum (dpc) pseudo-pregnant CD-1 recipient females using the non-surgical uterine embryo transfer device (65). Pseudo-pregnant CD-1 recipient females were obtained by mating with vasectomized males one day after in vitro fertilization. Only females with a clear plug were chosen as embryo recipients; late morula and early stage blastocysts were chosen to be transferred. Routine genotyping was performed with total DNA from tail biopsy samples from weaning age pups as templates for PCR using genotyping primers for Catsper gene forward [5′-[…]-3′, Seq ID NO: 1] and reverse [S′-[…]-3′; Seq ID NO: 2] and for the reporter gene Lacz forward [5′[…]-3′; Seq ID NO: 3] and reverse [5′-[…]-3′: Seq ID NO: 4] (19).

Experiment [5] relates to pseudo-pregnant CD-1 recipient females. The experiment can be described thus: Non-surgical embryo transfer to pseudo-pregnant females, pups born. It is filed as in vivo, mouse. The procedure:
as §2

Where [6] appears, read: H89-treated C57BL6 sperm incubated 10 min in A23187.

Consider `O=S(=O)(NCCNCC=Cc1ccc(Br)cc1)c1cccc2cnccc12` [H89, N-[2-[[3-(4-bromophenyl)-2-propen-1-yl]amino]ethyl]5-isoquinolinesulfonamide], for which the “ability to fertilize in vitro in the presence of PKA inhibitor” value in experiment [1] (C57BL6 sperm, H89 50 uM) is listed as “unable to fertilize in vitro”. Further, in experiment [2] (C57BL6 sperm, H89 50 uM), the PKA substrate phosphorylation result is on record as “do not show the prototypical increase in PKA substrate phosphorylation”.

`CNc1ccc2oc(C[C@H]3O[C@@]4(CC[C@H]3C)O[C@H]([C@H](C)C(=O)c3ccc[nH]3)[C@H](C)C[C@H]4C)nc2c1C(=O)O` [A23187]: the “percentage of hyperactive sperm” value in experiment [3] (C57BL6 sperm, short pulse of A23187 (20 uM, 10 min), compared with CD1 sperm) is listed as “increased the percentage of hyperactive C57BL6 sperm to similar levels as those obtained using CD1 sperm”. The hyperactivated motility result in experiment [3] (CatSper1 KO sperm, 20 μM A23187 10 min then washed) is recorded as “a significant number of CatSper KO sperm exhibited hyperactivated motility”; in experiment [3] (PMCA4 KO sperm, A23187 treatment), “neither their hyperactivated motility nor their fertilizing capacity was rescued”. In addition, the sperm motility result in experiment [3] (PMCA4 KO sperm, A23187 addition and removal) is “rendered all the sperm motionless and their motility was not recovered after ionophore removal”; in experiment [3] (sAC KO sperm, A23187 for 10 min), “a significant fraction of sAC KO sperm became motile”. Moreover, the hyperactivation result in experiment [3] (sAC KO and SLO3 KO sperm, A23187 for 10 min) is “underwent hyperactivation”. In addition, the sperm fertilization rate result is given as “significant increase” in experiment [1] (C57BL6 sperm, A23187 pre-treatment) and “improved” in experiment [1] (FerTDR/DR sperm, A23187 transient incubation). Besides, the “infertile phenotype (two-cell embryos developed)” value in experiment [1] (CatSper1 KO sperm, A23187 transient treatment alone) is listed as “rescued the infertile phenotype”. The “fertilization of metaphase II-arrested eggs in vitro” value in experiment [1] (CatSper KO sperm, A23187-treated) is on record as “competent to fertilize”. Also, the fertilization rate in experiment [1] (CatSper KO sperm, starved plus rescue treatment followed by A23187 transient treatment) is given as about 90%. Further, the “fertilizing capacity of H89-treated sperm” value in experiment [1] (setting [6]) is reported as “sufficient to induce fertilizing capacity”. Also, the fertilizing capacity entry is recorded as “neither their hyperactivated motility nor their fertilizing capacity was rescued” in experiment [1] (PMCA4 KO sperm); “induced fertilizing capacity in sperm from both KO models” in experiment [1] (sAC KO and SLO3 KO sperm). Besides, the “percentage of blastocyst in relation to the number of two-cell embryos” value is recorded as 20% in experiment [4] (A23187 transient treatment alone) and about 90% in experiment [4] (combined starved plus rescue with A23187 transient treatment). Further, the “fertilized eggs that continued to the blastocyst stage” value in experiment [4] (eggs fertilized by C57BL6 sperm after A23187 treatment, control about 50%) was “over 80%”. For the same compound, the “outcome of blastocysts non-surgically transferred to pseudo pregnant females” value in experiment [5] (C57BL6 sperm after A23187 treatment) was “became live pups”. Moreover, the heterozygous pups born entry in experiment [5] (CatSper KO sperm, A23187 alone, 15 blastocysts transferred) is “three”. Besides, in experiment [5] (blastocysts from A23187-treated CatSper KO sperm, two different females), the “CatSper (+/-) mouse pups born” value is recorded as “five”. For the same compound, the “PKA activity in H89-treated sperm after A23187” value in experiment [2] (setting [6]) is “PKA remains inactive”.
